Assay results as given in US11945822B2, “Pyrazolo-triazine and/or pyrazolo-pxrimidine derivatives as selective inhibitor of cyclin dependent kinase” (QURIENT CO., LTD., priority 2018, dated 2024).

target: T1, CDK1/Cyclin B (Homo sapiens, UniProt P06493); assay: Enzymatic assay for CDK1 (FRET based LANCE Ultra kinase assay); format: biochemical; conditions: read-out: CDK1 enzymatic activity (IC50 activity range)
T1 construct: purchased Invitrogen PR4768C
Outline: (§1)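 LANCE Ultra TR-FRET: ULight-MBP peptide (68 nM) with ATP at Km, […], 60 min at 23° C. EDTA plus Eu-anti-phospho-MBP added, another 60 min, then 665/615 nm emission read. Compounds tested as 8-dose 4-fold DMSO dilutions.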

T1 sequence (P06493 whole entry): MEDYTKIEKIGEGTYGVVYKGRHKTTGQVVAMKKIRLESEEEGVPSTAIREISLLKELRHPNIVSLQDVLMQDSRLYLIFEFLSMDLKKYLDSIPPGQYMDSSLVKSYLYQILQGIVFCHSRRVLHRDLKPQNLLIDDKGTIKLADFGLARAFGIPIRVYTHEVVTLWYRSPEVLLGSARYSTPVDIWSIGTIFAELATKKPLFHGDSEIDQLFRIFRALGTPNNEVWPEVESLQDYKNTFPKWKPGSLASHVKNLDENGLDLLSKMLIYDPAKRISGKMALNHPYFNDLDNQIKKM
T1 sequence (P14635 whole entry partner): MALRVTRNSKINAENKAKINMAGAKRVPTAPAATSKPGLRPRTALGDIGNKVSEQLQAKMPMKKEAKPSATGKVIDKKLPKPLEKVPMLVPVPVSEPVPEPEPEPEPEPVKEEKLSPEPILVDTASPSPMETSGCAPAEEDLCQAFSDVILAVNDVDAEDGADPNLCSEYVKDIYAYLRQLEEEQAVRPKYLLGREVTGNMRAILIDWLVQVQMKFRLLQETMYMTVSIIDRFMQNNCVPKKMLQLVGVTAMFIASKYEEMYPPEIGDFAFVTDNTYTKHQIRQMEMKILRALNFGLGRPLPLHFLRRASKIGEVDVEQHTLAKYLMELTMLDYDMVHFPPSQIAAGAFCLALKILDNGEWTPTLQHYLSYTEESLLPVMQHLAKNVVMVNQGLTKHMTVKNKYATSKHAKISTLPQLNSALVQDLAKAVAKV

IC50 | Structure (SMILES)
> 1 µM | Cc1cn(-c2cccc(Cl)c2CNc2nc(N3CCC(N)CC3)nc3c(C(C)C)cnn23)nc1C(C)(C)O [Compound 256]
> 1 µM | CC(C)c1cnn2c(NCc3c(Cl)cccc3-c3cc(C(C)(C)O)nn3C)nc(N3CCC(N)CC3)nc12 [Compound 258]
> 1 µM | CC(C)c1cnn2c(NCc3ccccc3-c3ccc4ccccc4n3)nc(N3CCCC[C@H]3CCO)nc12 [Compound 260]
> 1 µM | CCN1CC[C@H](CNc2nc(NCc3ccccc3-c3ccc4ccccc4n3)n3ncc(C(C)C)c3n2)[C@@H](O)C1 [Compound 261]

target: T2, CDK2/Cyclin A (Homo sapiens, UniProt P24941); assay: Enzymatic assay for CDK2 (FRET based LANCE Ultra kinase assay); format: biochemical; conditions: read-out: CDK2 enzymatic activity (IC50 activity range)
T2 construct: purchased Invitrogen PV6290
Outline: as §1

IC50 | Structure (SMILES)
> 1 µM | Cc1cn(-c2cccc(Cl)c2CNc2nc(N3CCC(N)CC3)nc3c(C(C)C)cnn23)nc1C(C)(C)O [Compound 256]
> 1 µM | CC(C)c1cnn2c(NCc3c(Cl)cccc3-c3cc(C(C)(C)O)nn3C)nc(N3CCC(N)CC3)nc12 [Compound 258]
> 1 µM | CC(C)c1cnn2c(NCc3ccccc3-c3ccc4ccccc4n3)nc(N3CCCC[C@H]3CCO)nc12 [Compound 260]
> 1 µM | CCN1CC[C@H](CNc2nc(NCc3ccccc3-c3ccc4ccccc4n3)n3ncc(C(C)C)c3n2)[C@@H](O)C1 [Compound 261]

target: T3, CDK5/p25 (Homo sapiens, UniProt Q00535); assay: Enzymatic assay for CDK5 (FRET based LANCE Ultra kinase assay); format: biochemical; conditions: read-out: CDK5 enzymatic activity (IC50 activity range)
T3 construct: purchased Invitrogen PR8543B
Outline: as §1

T3 sequence (Q00535 whole entry): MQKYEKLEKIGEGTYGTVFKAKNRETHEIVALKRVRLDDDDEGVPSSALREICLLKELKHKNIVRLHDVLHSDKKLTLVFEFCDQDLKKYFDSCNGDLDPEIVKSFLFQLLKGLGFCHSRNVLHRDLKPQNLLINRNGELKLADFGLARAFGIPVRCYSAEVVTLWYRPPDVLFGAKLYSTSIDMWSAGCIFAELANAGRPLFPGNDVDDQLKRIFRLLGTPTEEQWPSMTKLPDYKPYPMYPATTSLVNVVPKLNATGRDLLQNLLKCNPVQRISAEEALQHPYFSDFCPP
T3 sequence (Q15078 99-307 partner limits assumed): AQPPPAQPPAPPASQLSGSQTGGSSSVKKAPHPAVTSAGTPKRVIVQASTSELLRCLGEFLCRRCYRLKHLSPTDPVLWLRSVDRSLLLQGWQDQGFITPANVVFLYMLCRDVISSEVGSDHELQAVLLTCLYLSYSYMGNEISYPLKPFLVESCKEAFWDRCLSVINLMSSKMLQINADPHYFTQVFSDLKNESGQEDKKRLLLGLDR

IC50 | Structure (SMILES)
> 1 µM | Cc1cn(-c2cccc(Cl)c2CNc2nc(N3CCC(N)CC3)nc3c(C(C)C)cnn23)nc1C(C)(C)O [Compound 256]
> 1 µM | CC(C)c1cnn2c(NCc3c(Cl)cccc3-c3cc(C(C)(C)O)nn3C)nc(N3CCC(N)CC3)nc12 [Compound 258]
> 1 µM | CC(C)c1cnn2c(NCc3ccccc3-c3ccc4ccccc4n3)nc(N3CCCC[C@H]3CCO)nc12 [Compound 260]
> 1 µM | CCN1CC[C@H](CNc2nc(NCc3ccccc3-c3ccc4ccccc4n3)n3ncc(C(C)C)c3n2)[C@@H](O)C1 [Compound 261]

target: T4, CDK7/Cyclin H/MNAT1 (Homo sapiens, UniProt P50613); assay: Enzymatic assay for CDK7 (FRET based LANCE Ultra kinase assay); format: biochemical; conditions: CDK1/CDK7
T4 construct: purchased Invitrogen PR6749B
Outline: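 LANCE Ultra TR-FRET kinase assay using a ULight-labeled peptide substrate and a Eu-labeled anti-phospho antibody, with ATP at its Km. Purified CDK/cyclin complex was added to compound after brief centrifugation.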

T4 sequence (P50613 whole entry): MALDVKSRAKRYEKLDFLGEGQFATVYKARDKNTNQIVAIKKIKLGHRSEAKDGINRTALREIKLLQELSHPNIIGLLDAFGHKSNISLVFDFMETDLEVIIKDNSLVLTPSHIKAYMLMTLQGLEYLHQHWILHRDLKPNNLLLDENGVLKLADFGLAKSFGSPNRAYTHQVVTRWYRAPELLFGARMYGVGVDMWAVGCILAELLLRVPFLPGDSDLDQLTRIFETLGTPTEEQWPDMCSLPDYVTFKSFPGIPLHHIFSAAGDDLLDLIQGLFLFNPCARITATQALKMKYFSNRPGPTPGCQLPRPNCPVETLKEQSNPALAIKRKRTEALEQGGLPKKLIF
T4 sequence (P51946 whole entry partner): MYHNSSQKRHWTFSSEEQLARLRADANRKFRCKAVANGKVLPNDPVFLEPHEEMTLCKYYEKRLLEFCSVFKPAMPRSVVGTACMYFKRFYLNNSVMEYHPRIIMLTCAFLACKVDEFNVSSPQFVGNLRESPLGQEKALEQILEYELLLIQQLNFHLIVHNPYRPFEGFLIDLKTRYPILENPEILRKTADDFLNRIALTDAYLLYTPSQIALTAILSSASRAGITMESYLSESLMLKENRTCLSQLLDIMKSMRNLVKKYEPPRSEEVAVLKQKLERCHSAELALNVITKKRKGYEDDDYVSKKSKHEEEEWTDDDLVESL
T4 sequence (P51948 whole entry partner): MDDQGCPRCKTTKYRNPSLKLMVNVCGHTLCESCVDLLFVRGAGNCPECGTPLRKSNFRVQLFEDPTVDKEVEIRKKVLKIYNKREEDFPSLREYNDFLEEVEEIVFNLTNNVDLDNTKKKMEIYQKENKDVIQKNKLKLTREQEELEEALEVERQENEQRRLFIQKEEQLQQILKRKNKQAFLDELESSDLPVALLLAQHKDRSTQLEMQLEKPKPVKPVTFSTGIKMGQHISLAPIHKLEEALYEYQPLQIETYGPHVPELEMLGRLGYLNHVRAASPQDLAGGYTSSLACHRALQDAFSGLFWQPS

CDK1/CDK7: Selectivity of CDK7 inhibition over CDK1 inhibition | Structure (SMILES)
A (A=greater than 200 fold) | Cc1cn(-c2cccc(Cl)c2CNc2nc(N3CCC(N)CC3)nc3c(C(C)C)cnn23)nc1C(C)(C)O [Compound 256]
A (A=greater than 200 fold) | CC(C)c1cnn2c(NCc3c(Cl)cccc3-c3cc(C(C)(C)O)nn3C)nc(N3CCC(N)CC3)nc12 [Compound 258]
A (A=greater than 200 fold) | CCN1CC[C@H](CNc2nc(NCc3ccccc3-c3ccc4ccccc4n3)n3ncc(C(C)C)c3n2)[C@@H](O)C1 [Compound 261]

Structure (SMILES) | CDK1/CDK7: Selectivity of CDK7 inhibition over CDK1 inhibition
CC(C)c1cnn2c(NCc3ccccc3-c3ccc4ccccc4n3)nc(N3CCCC[C@H]3CCO)nc12 [Compound 260] | B (B=less than 200 fold, but greater than 20 fold)

same assay, conditions: CDK2/CDK7

CDK2/CDK7: Selectivity of CDK7 inhibition over CDK2 inhibition | Structure (SMILES)
A (A=greater than 200 fold) | Cc1cn(-c2cccc(Cl)c2CNc2nc(N3CCC(N)CC3)nc3c(C(C)C)cnn23)nc1C(C)(C)O [Compound 256]
A (A=greater than 200 fold) | CC(C)c1cnn2c(NCc3c(Cl)cccc3-c3cc(C(C)(C)O)nn3C)nc(N3CCC(N)CC3)nc12 [Compound 258]
A (A=greater than 200 fold) | CCN1CC[C@H](CNc2nc(NCc3ccccc3-c3ccc4ccccc4n3)n3ncc(C(C)C)c3n2)[C@@H](O)C1 [Compound 261]

Structure (SMILES) | CDK2/CDK7: Selectivity of CDK7 inhibition over CDK2 inhibition
CC(C)c1cnn2c(NCc3ccccc3-c3ccc4ccccc4n3)nc(N3CCCC[C@H]3CCO)nc12 [Compound 260] | B (B=less than 200 fold, but greater than 20 fold)

same assay, conditions: CDK5/CDK7

CDK5/CDK7: Selectivity of CDK7 inhibition over CDK5 inhibition | Structure (SMILES)
A (A=greater than 200 fold) | Cc1cn(-c2cccc(Cl)c2CNc2nc(N3CCC(N)CC3)nc3c(C(C)C)cnn23)nc1C(C)(C)O [Compound 256]
A (A=greater than 200 fold) | CC(C)c1cnn2c(NCc3c(Cl)cccc3-c3cc(C(C)(C)O)nn3C)nc(N3CCC(N)CC3)nc12 [Compound 258]
A (A=greater than 200 fold) | CCN1CC[C@H](CNc2nc(NCc3ccccc3-c3ccc4ccccc4n3)n3ncc(C(C)C)c3n2)[C@@H](O)C1 [Compound 261]

Structure (SMILES) | CDK5/CDK7: Selectivity of CDK7 inhibition over CDK5 inhibition
CC(C)c1cnn2c(NCc3ccccc3-c3ccc4ccccc4n3)nc(N3CCCC[C@H]3CCO)nc12 [Compound 260] | B (B=less than 200 fold, but greater than 20 fold)

same assay, conditions: read-out: CDK7 enzymatic activity (IC50 activity range)

IC50 | Structure (SMILES)
< 0.1 µM | Cc1cn(-c2cccc(Cl)c2CNc2nc(N3CCC(N)CC3)nc3c(C(C)C)cnn23)nc1C(C)(C)O [Compound 256]
< 0.1 µM | CC(C)c1cnn2c(NCc3c(Cl)cccc3-c3cc(C(C)(C)O)nn3C)nc(N3CCC(N)CC3)nc12 [Compound 258]
0.1 to 1 µM | CC(C)c1cnn2c(NCc3ccccc3-c3ccc4ccccc4n3)nc(N3CCCC[C@H]3CCO)nc12 [Compound 260]
< 0.1 µM | CCN1CC[C@H](CNc2nc(NCc3ccccc3-c3ccc4ccccc4n3)n3ncc(C(C)C)c3n2)[C@@H](O)C1 [Compound 261]

test system: H460; assay: Cellular H460 viability assay (CellTiter-Glo, 72 hours); format: cell-based; conditions: Homo sapiens, NCI-H460
Outline: (§2)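 72 h treatment, 37 °C, 5% CO2; DMSO ctrl, final <0.1%; CellTiter-Glo luminescence; n=2.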

IC50 | Structure (SMILES)
< 1 µM | Cc1cn(-c2cccc(Cl)c2CNc2nc(N3CCC(N)CC3)nc3c(C(C)C)cnn23)nc1C(C)(C)O [Compound 256]
< 1 µM | CC(C)c1cnn2c(NCc3c(Cl)cccc3-c3cc(C(C)(C)O)nn3C)nc(N3CCC(N)CC3)nc12 [Compound 258]
1 to 10 µM | CC(C)c1cnn2c(NCc3ccccc3-c3ccc4ccccc4n3)nc(N3CCCC[C@H]3CCO)nc12 [Compound 260]
< 1 µM | CCN1CC[C@H](CNc2nc(NCc3ccccc3-c3ccc4ccccc4n3)n3ncc(C(C)C)c3n2)[C@@H](O)C1 [Compound 261]

test system: MV4-11; assay: Cellular MV4-11 viability assay (CellTiter-Glo, 72 hours); format: cell-based; conditions: Homo sapiens
Outline: as §2

IC50 | Structure (SMILES)
< 1 µM | Cc1cn(-c2cccc(Cl)c2CNc2nc(N3CCC(N)CC3)nc3c(C(C)C)cnn23)nc1C(C)(C)O [Compound 256]
< 1 µM | CC(C)c1cnn2c(NCc3c(Cl)cccc3-c3cc(C(C)(C)O)nn3C)nc(N3CCC(N)CC3)nc12 [Compound 258]
1 to 10 µM | CC(C)c1cnn2c(NCc3ccccc3-c3ccc4ccccc4n3)nc(N3CCCC[C@H]3CCO)nc12 [Compound 260]
1 to 10 µM | CCN1CC[C@H](CNc2nc(NCc3ccccc3-c3ccc4ccccc4n3)n3ncc(C(C)C)c3n2)[C@@H](O)C1 [Compound 261]

test system: A2780; assay: Cellular A2780 viability assay (CellTiter-Glo, 72 hours); format: cell-based; conditions: Homo sapiens
Description: Human T-cell acute lymphoblastic leukemia cell line, MOLT-4 (ATCC, Cat #CRL-1582), Human multiple myeloma cell line, RPMI-8226 (Invitrogen, Cat #22400-089) and MM.1S (ATCC, Cat #CRL-2974), NSCLC (Non-small cell lung cancer) cell line H460 (ATCC, Cat #HTB-177), Human colon colorectal carcinoma cell line HCT116 (ATCC, Cat #CCL-247), Human acute monocytic leukemia cell line MV4-11 (ATCC, Cat #CRL-9591), OVCAR-3 (ATCC, Cat #HTB-161) and A2780 (ECACC, Cat #93112519) were obtained from ATCC. Cells were grown in RPMI-1640 media (Invitrogen, Cat #22400-089) supplemented with 10% FBS (Invitrogen, Cat #10099141) and 1% penicillin/streptomycin (Invitrogen, Cat #15070063) and cultured at 37° C., 5% CO2 in a humidified chamber. All cell lines were routinely tested for mycoplasma.
The effect of the CDK7 inhibitor to inhibit the growth of target cancer cells was evaluated through the 72 hours time period of viability assay. Briefly, the candidate cell line ware plated in 96 well plate at the following density of cells respectively. 1×10^4 cells/well for MOLT-4, RPMI-8226, MV4-11 and MM.1S, 5×10^3 for H460, HCT116 and OVCAR-3 and IX 10^3 for A2780. After 24 hours, the cells were treated with various concentrations of the compound (ranging from 0.0015 uM to 10 uM). DMSO solvent without compound served as a control and final DMSO concentration less than 0.1%. After 72 hours of incubation at 37° C., 5% CO2 incubator, cells were analyzed for the viability using the CellTiter-Glo Luminescent Cell Viability Assay (Promega, Cat #G7570). All viability assays were performed in duplicate and Luminescence was read using an Envision (Perkin Elmer, USA). Data was analyzed using XLfit software.

IC50 | Structure (SMILES)
≤ 1 µM | Cc1cn(-c2cccc(Cl)c2CNc2nc(N3CCC(N)CC3)nc3c(C(C)C)cnn23)nc1C(C)(C)O [Compound 256]
≤ 1 µM | CC(C)c1cnn2c(NCc3c(Cl)cccc3-c3cc(C(C)(C)O)nn3C)nc(N3CCC(N)CC3)nc12 [Compound 258]
1 to 10 µM | CC(C)c1cnn2c(NCc3ccccc3-c3ccc4ccccc4n3)nc(N3CCCC[C@H]3CCO)nc12 [Compound 260]
≤ 1 µM | CCN1CC[C@H](CNc2nc(NCc3ccccc3-c3ccc4ccccc4n3)n3ncc(C(C)C)c3n2)[C@@H](O)C1 [Compound 261]
